We go through 23 molecules from US20090118332A1, “Therapeutic Agents - 551” (AstraZeneca AB, priority 2006, published 2009).

The experiment concerns the target T1, human Fatty Acid Synthase (Homo sapiens, UniProt P49327).
T1 construct: made in house
Description: Human FAS enzyme assay (decrease in NADPH fluorescence). Type of experiment: biochemical. As to conditions: for inhibition at 100 µM: % inhibition at a concentration of 100 μmolar; for IC50, inhibition of human Fatty Acid Synthase: FAS enzyme assay, IC50 from fitted sigmoid curves. The essentials: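 In-house human FAS was preincubated with compound and NADPH for 15 min at room temperature in 0.1 M Tris pH 7.5 with EDTA, glutathione and BSA. Malonyl CoA and acetyl CoA (500 μM and 150 μM in the added mix) were then added for 60 min. IC50 came from time-zero-subtracted NADPH fluorescence (340/460 nm).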

T1 sequence (P49327 whole entry): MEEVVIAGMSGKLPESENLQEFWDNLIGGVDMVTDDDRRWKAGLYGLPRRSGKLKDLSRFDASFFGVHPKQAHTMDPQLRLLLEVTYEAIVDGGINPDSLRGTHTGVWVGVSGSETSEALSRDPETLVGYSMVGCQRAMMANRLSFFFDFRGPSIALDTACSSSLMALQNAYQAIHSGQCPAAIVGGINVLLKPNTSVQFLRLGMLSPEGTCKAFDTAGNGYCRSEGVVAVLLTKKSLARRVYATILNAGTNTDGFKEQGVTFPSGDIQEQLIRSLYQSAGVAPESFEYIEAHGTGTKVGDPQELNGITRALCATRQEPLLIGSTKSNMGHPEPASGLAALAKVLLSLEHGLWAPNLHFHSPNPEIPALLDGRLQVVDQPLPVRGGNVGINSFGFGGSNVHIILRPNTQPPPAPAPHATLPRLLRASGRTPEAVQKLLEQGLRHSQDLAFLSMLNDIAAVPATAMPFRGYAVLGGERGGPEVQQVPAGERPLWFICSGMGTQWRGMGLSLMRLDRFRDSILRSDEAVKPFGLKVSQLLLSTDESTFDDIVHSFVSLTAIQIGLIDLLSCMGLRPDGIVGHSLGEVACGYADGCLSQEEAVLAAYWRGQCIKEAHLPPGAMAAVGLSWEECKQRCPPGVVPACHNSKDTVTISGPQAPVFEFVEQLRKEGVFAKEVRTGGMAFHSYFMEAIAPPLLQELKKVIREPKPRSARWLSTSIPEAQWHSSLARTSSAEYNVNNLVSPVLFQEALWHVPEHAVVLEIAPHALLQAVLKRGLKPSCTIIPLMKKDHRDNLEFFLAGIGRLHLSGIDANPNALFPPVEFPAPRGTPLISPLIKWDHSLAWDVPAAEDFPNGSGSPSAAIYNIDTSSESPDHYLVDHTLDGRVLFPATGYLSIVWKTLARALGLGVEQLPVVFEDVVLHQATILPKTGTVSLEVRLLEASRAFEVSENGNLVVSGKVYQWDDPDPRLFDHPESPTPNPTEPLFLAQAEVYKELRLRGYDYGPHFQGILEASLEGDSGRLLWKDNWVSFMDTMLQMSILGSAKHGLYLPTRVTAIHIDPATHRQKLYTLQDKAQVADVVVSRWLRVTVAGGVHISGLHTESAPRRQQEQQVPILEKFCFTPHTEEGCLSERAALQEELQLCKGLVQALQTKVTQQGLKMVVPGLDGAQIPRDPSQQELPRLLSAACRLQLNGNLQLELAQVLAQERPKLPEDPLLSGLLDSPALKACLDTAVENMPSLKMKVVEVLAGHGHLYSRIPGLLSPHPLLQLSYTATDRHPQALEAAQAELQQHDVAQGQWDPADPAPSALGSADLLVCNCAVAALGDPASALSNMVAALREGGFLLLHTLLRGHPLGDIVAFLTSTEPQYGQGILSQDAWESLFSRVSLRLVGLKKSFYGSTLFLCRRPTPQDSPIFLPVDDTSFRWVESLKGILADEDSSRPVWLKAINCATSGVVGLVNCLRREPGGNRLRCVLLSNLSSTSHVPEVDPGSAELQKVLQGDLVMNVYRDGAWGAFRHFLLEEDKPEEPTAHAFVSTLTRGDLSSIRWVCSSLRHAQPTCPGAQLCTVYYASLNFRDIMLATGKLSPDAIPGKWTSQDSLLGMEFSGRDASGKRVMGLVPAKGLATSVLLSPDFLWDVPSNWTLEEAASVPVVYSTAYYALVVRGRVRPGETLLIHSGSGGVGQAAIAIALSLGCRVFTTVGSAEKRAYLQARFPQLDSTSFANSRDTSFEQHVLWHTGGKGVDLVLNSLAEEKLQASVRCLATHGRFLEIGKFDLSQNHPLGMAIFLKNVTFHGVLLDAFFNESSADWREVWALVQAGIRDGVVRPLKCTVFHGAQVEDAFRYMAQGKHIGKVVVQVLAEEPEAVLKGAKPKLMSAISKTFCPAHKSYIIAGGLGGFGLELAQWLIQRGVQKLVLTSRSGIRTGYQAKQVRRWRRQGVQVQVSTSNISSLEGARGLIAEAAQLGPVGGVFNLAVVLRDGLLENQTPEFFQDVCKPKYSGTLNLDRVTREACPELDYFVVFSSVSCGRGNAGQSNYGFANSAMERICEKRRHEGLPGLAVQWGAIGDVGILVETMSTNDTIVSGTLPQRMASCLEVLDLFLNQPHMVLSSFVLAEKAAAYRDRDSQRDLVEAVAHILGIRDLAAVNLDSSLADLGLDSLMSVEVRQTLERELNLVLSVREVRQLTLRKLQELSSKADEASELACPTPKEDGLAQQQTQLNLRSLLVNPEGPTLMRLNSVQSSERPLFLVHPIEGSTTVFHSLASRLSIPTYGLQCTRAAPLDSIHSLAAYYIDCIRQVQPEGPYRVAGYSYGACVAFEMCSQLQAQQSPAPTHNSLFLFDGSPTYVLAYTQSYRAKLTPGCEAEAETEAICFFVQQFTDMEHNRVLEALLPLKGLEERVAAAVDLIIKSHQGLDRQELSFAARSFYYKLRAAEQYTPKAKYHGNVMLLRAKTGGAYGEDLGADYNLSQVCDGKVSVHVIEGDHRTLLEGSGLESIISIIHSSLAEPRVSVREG

On to `Cc1ccc(C(=O)N2CCC(c3ccc(C#N)cc3)CC2)cc1NC(=O)NCc1cccc(C#N)c1` [Example 108, 3-[(3-cyanophenyl)methyl]-1-[5-[4-(4-cyanophenyl)piperidine-1-carbonyl]-2-methyl-phenyl]urea], for which the inhibition at 100 µM is 91.8%.

For the molecule `CC(=O)N[C@@H]1CCCC[C@H]1NC(=O)Nc1cc(C(=O)N2CCC(c3ccc(C#N)cc3)CC2)ccc1C` (relative stereo) [N-[(trans)-2-[[5-[4-(4-cyanophenyl)piperidine-1-carbonyl]-2-methylphenyl]carbamoylamino]cyclohexyl]acetamide], the “IC50, inhibition of human Fatty Acid Synthase” value (from here on “IC50, inhibition”) is reported as “do not have IC50s in the range of about 0.001 μM to about 30 μM”.

In the case of `CCN1CCC[C@H]1CNC(=O)Nc1cc(C(=O)N2CCC(c3ccc(C#N)cc3)CC2)ccc1C` [Example 149, 3-[5-[4-(4-cyanophenyl)piperidine-1-carbonyl]-2-methyl-phenyl]-1-[[(2S)-1-ethylpyrrolidin-2-yl]methyl]urea], the inhibition at 100 µM worked out at 80.2%.

As for `COC(=O)C(Cc1ccc(F)cc1)NC(=O)Nc1cc(C(=O)N2CCC(c3ccc(C#N)cc3)CC2)ccc1C` (centres unmarked) [Methyl 2-[[5-[4-(4-cyanophenyl)piperidine-1-carbonyl]-2-methylphenyl]carbamoylamino]-3-(4-fluorophenyl)propanoate], the “IC50, inhibition” value is given as “do not have IC50s in the range of about 0.001 μM to about 30 μM”.

On to `Cc1ccc(C(=O)N2CCC(c3ccc(C#N)cc3)CC2)cc1NC(=O)NC1CN(C(=O)C(C)C)C1` [Example 301, 1-[5-[4-(4-cyanophenyl)piperidine-1-carbonyl]-2-methyl-phenyl]-3-[1-(2-methylpropanoyl)azetidin-3-yl]urea], for which the inhibition at 100 µM was found to be 96.6%.

`Cc1ccc(C(=O)N2CCC(c3ccc(C#N)cc3)CC2)cc1NC(=O)NC(C)c1cccnc1` (centres unmarked) [Example 354, 1-[5-[4-(4-cyanophenyl)piperidine-1-carbonyl]-2-methyl-phenyl]-3-(1-pyridin-3-ylethyl)urea]: the inhibition at 100 µM worked out at 91.3%.

Regarding `Cc1ccc(C(=O)N2CCC(c3ccc(C#N)cc3)CC2)cc1NC(=O)NC(C)c1ccncc1` (centres unmarked) [Example 357, 1-[5-[4-(4-cyanophenyl)piperidine-1-carbonyl]-2-methyl-phenyl]-3-(1-pyridin-4-ylethyl)urea], the inhibition at 100 µM was found to be 102%.

In the case of `COCCNC(=O)Nc1cc(C(=O)N2CCC(c3ccc(C#N)cc3)CC2)c(C)cc1C` [Example 412, 1-[5-[4-(4-cyanophenyl)piperidine-1-carbonyl]-2,4-dimethylphenyl]-3-(2-methoxyethyl)urea], the inhibition at 100 µM stood at 89.9%.

Take `Cc1ccc(C(=O)N2CCC(c3ccc(C(F)(F)F)cc3)CC2)cc1NC(=O)NC1CCCNC1` (centres unmarked) [Example 337, 1-[2-methyl-5-[4-[4-(trifluoromethyl)phenyl]piperidine-1-carbonyl]phenyl]-3-(3-piperidyl)urea]: the inhibition at 100 µM is 90.1%.

On to `Cc1ccc(C(=O)N2CCC(c3ccc(C#N)cc3)CC2)cc1NC(=O)NCCCN1CCCC1=O` [Example 131, 1-[5-[4-(4-cyanophenyl)piperidine-1-carbonyl]-2-methyl-phenyl]-3-[3-(2-oxopyrrolidin-1-yl)propyl]urea], for which the inhibition at 100 µM worked out at 89.8%.

On to `Cc1ccc(C(=O)N2CCC(c3ccc(C#N)cc3)CC2)cc1NC(=O)NCc1cncn1C` [Example 150, 1-[5-[4-(4-cyanophenyl)piperidine-1-carbonyl]-2-methyl-phenyl]-3-[(3-methylimidazol-4-yl)methyl]urea], for which the inhibition at 100 µM stood at 85%.

`Cc1ccc(C(=O)N2CCC(c3ccc(C#N)cc3)CC2)cc1NC(=O)NCc1cccc(N)c1` [Example 85, 3-[(3-aminophenyl)methyl]-1-[5-[4-(4-cyanophenyl)piperidine-1-carbonyl]-2-methyl-phenyl]urea]: the inhibition at 100 µM came out at 93.6%.

Regarding `Cc1ccc(C(=O)N2CCC(c3ccc(C#N)cc3)CC2)cc1NC(=O)NCCCN(CCO)CCO` [Example 141, 3-[3-(bis(2-hydroxyethyl)amino)propyl]-1-[5-[4-(4-cyanophenyl)piperidine-1-carbonyl]-2-methyl-phenyl]urea], the inhibition at 100 µM was found to be 82.1%.

As to `Cc1ccc(C(=O)N2CCC(c3ccc(C#N)cc3)CC2)cc1NC(=O)NCCN1CCCC1=O` [Example 176, 1-[5-[4-(4-cyanophenyl)piperidine-1-carbonyl]-2-methyl-phenyl]-3-[2-(2-oxopyrrolidin-1-yl)ethyl]urea], the inhibition at 100 µM worked out at 92.6%.

`Cc1ccc(C(=O)N2CCC(c3ccc(S(N)(=O)=O)cc3)CC2)cc1NC(=O)NC(C)C` [Example 360, 1-[2-methyl-5-[4-(4-sulfamoylphenyl)piperidine-1-carbonyl]phenyl]-3-propan-2-yl-urea]: the inhibition at 100 µM was 97.3%.

`Cc1ccc(C(=O)N2CCC(c3ccc(F)cc3)CC2)cc1NC(=O)NC1CN(C(=O)OC(C)(C)C)C1` [Example 339, tert-butyl 3-[[5-[4-(4-fluorophenyl)piperidine-1-carbonyl]-2-methyl-phenyl]carbamoylamino]azetidine-1-carboxylate]: the inhibition at 100 µM is 81.3%.

For the molecule `Cc1ccc(C(=O)N2CCC(c3ccc(C#N)cc3)CC2)cc1NC(=O)NCCNC(=O)CC(=O)N(C)C` [Example 231, N-[2-[[5-[4-(4-cyanophenyl)piperidine-1-carbonyl]-2-methyl-phenyl]carbamoylamino]ethyl]-N′,N′-dimethyl-propanediamide], the inhibition at 100 µM is 90.3%.

Turning to `Cc1ccc(C(=O)N2CCC(c3ccc(C#N)cc3)CC2)cc1NC(=O)NCCc1c[nH]cn1` [Example 139, 1-[5-[4-(4-cyanophenyl)piperidine-1-carbonyl]-2-methyl-phenyl]-3-[2-(1H-imidazol-4-yl)ethyl]urea], the inhibition at 100 µM is 87%.

In the case of `CCc1ccc(C(=O)N2CCC(c3ccc(C#N)cc3)CC2)cc1NC(=O)NCC1COCCO1` (racemic) [Example 259, (RS)-1-[5-[4-(4-cyanophenyl)piperidine-1-carbonyl]-2-ethyl-phenyl]-3-(1,4-dioxan-2-ylmethyl)urea], the inhibition at 100 µM amounted to 102%.

Regarding `Cc1ccc(C(=O)N2CCC(c3ccc(C#N)cc3)CC2)cc1NC(=O)NC1COc2ccccc2OC1` [Example 163, 1-[5-[4-(4-cyanophenyl)piperidine-1-carbonyl]-2-methyl-phenyl]-3-(2,6-dioxabicyclo[5.4.0]undeca-8,10,12-trien-4-yl)urea], the inhibition at 100 µM was determined as 102%.

For the molecule `Cc1ccc(C(=O)N2CCC(O)(c3cccc(C(F)(F)F)c3)CC2)cc1NC(=O)NC(C)C` [1-[5-[4-hydroxy-4-[3-(trifluoromethyl)phenyl]piperidine-1-carbonyl]-2-methylphenyl]-3-propan-2-ylurea], the “IC50, inhibition” value is recorded as “do not have IC50s in the range of about 0.001 μM to about 30 μM”.

In the case of `Cc1ccc(C(=O)N2CCC(c3ccc(C#N)cc3)CC2)cc1NC(=O)NCCc1ccc(S(N)(=O)=O)cc1` [Example 57, 1-[5-[4-(4-cyanophenyl)piperidine-1-carbonyl]-2-methyl-phenyl]-3-[2-(4-sulfamoylphenyl)ethyl]urea], the inhibition at 100 µM is 96.8%.

On to `N#Cc1ccc(C2CCN(C(=O)c3ccc(OC(F)(F)F)c(NC(=O)NCc4ccccc4)c3)CC2)cc1` [Example 5, 3-benzyl-1-[5-[4-(4-cyanophenyl)piperidine-1-carbonyl]-2-(trifluoromethoxy)phenyl]urea], for which the inhibition at 100 µM came to 78.8%.
